Results on three compounds are retold here after US6500849B1, “1-alkyl-, 1-alkenyl-, and 1-alkynylaryl-2-amino 1,3-propanediols and related compounds” (Aventis Pharmaceuticals Inc., priority 1990, dated 2002).

In one assay the test system is Bact. distasonis. Kind of assay: Anerobic antibacterial assay (agar dilution, Wilkins-Chalgren agar). It counts as cell-based. The conditions noted are these: Bact. distasonis 1366; anaerobic; 48 hours at 37° C.
A further assay has as its system Spaeroph. freundii. The description is as above. The format is cell-based. The settings on record: Spaeroph. freundii 1369; anaerobic; 48 hours at 37° C.
In another assay the test system is Microsporum Canis. The experiment in a line: Antifungal assay (microtitration technique). The format is cell-based. The conditions noted are these: Microsporum Canis strain 150/353; 5 days at 30° C. Here is the method: (§1) The microtiter plate is prepared as follows: The wells are each filled (2 rows/strain) with 50 μl neopeptone-dextrose broth (12-channel pipette). In addition, one row/strain is coated with 50 μl yeast-nitrogen base/well for yeasts and moulds. […] All wells are then inoculated with 150 μl standardized organism suspension (yeasts: 1×10^3 organisms/ml suspension; cutaneous fungi and moulds: 1.6×10^5 organisms/ml suspension); the total volume is 200 μl per well. There is also a growth control (inoculated, not medicated), a solvent control (inoculated, not medicated, containing solvent as in medicated rows) and a negative control (not inoculated, not medicated). Incubation for 5 days at 30° C. is followed by photometric evaluation. The obtained measurements are checked visually (macroscopically and microscopically) and corrected where necessary. Criteria for Evaluation of the Antimycotic Effect a. Photometric measurements (matrix method) b. Growth, macroscopic evaluation c. Growth, microscopic evaluation (inversion light microscope, magn. 64×).

For a further assay, the system named is Trichophyton Vaginalis. The experiment in a line: Antifungal assay (microtitration technique). It counts as cell-based. The conditions noted are these: Trichophyton Vaginalis strain 111/216; 5 days at 30° C. Here is the method:
as §1

In assay [1] the test system is Trichophyton Mentagrophytes. The experiment in a line: Antifungal assay (microtitration technique). The settings on record: Trichophyton Mentagrophytes strain 100/25; 5 days at 30° C. It counts as cell-based. As to the method:
as §1

The next assay relates to Aspergillus Niger. The experiment in a line: Antifungal assay (microtitration technique). It counts as cell-based. The settings on record: Aspergillus Niger strain 500/284; 5 days at 30° C. As to the method:
as §1

The next assay deals with Candida Albicans. Kind of assay: Antifungal assay (microtitration technique). It counts as cell-based. The conditions noted are these: Candida Albicans strain 200/175; 5 days at 30° C. As to the method: as §1
A further assay concerns Trichophyton Rubrum. The experiment in a line: Antifungal assay (microtitration technique). The format is cell-based. The conditions noted are these: Trichophyton Rubrum strain 101/85; 5 days at 30° C. As to the method: as §1
Another assay concerns Peptostr. anaerobius. The experiment in a line: Anerobic antibacterial assay (agar dilution, Wilkins-Chalgren agar). It counts as cell-based. The settings on record: Peptostr. anaerobius 932; anaerobic; 48 hours at 37° C.
Another assay has as its system Bact. fragilis. The assay is described as above. The settings on record: anaerobic, 48 hours at 37° C. The format is cell-based.
Another assay concerns Bact. ovatus. The assay is described as above. The format is cell-based. The conditions noted are these: Bact. ovatus 103; anaerobic; 48 hours at 37° C.
A further assay relates to Clost. perfringens. Kind of assay: microbe, parasite or virus in culture. It counts as cell-based. The conditions noted are these: Clost. perfringens 194; anaerobic; 48 hours at 37° C.
In the next assay the test system is Fusobact. varium. The experiment in a line: Anerobic antibacterial assay (agar dilution, Wilkins-Chalgren agar). It counts as cell-based. The settings on record: anaerobic, 48 hours at 37° C. (In agar dilution the substance is mixed into plates at graded concentrations.)
Another assay relates to Propionibact. acnes. Described as above. The conditions noted are these: anaerobic, 48 hours at 37° C. The format is cell-based.
For the next assay, the system named is Clost. tetani. The assay is described as above. It counts as cell-based. The settings on record: Clost. tetani 19406; anaerobic; 48 hours at 37° C.
The next assay relates to Bact. vulgatus. The description is as above. It counts as cell-based. The conditions noted are these: Bact. vulgatus 1446; anaerobic; 48 hours at 37° C.
Another assay concerns Bact. thetaiotaom. The assay is described as above. The format is cell-based. The conditions noted are these: anaerobic, 48 hours at 37° C.
The test system of assay [2] is female Swiss Webster mice. The experiment in a line: TPA-induced ear edema assay. It counts as in vivo. The settings on record: 10 μg/ear topical, after about 5 hours. As to the method: In the TPA-induced ear edema assay, TPA (12-O-tetradecanoylphorbol-13-acetate) was dissolved in 30/70 propylene glycol/ethanol and was applied to the right ear of groups of 6 female Swiss Webster mice, which were housed together in a cage under standard conditions for 1 week prior to use with food and water ad lib, at a volume of 20 μl so that a total of 10 μg of TPA is delivered to the inner and outer surfaces of the ear. The test compound was dissolved in the vehicle and was applied to the right ear (the inner and outer surface) at a volume of 20 μl so that a total of 10 μg of the compound was delivered to the ear. After about 5 hours, the animals were sacrificed, a 4 mm diameter plug was taken from each ear and weighed. The difference between the right and left ear plug weights for each animal was determined. The antiinflammatory activity of the test compound is expressed as the mean percent change in the ear plug weight of the treated animals compared to the mean percent change in the plug weight of the control animals.

Another assay concerns Strept. pyogenes. The experiment in a line: Aerobic antibacterial assay (agar dilution, Mueller-Hinton agar). The conditions noted are these: Strept. pyogenes 77 A; aerobic; 24 hours at 37° C.
The test system of another assay is Klebsiella spp. Described as above. The settings on record: Klebsiella spp. 1522E; aerobic; 24 hours at 37° C.
In the next assay the target is Protein kinase C. The experiment in a line: Protein kinase C assay (32P incorporation into Type III histone). The format is biochemical, rat. The settings on record: rat brain protein kinase C; phosphatidylserine/diacylglycerol stimulated; read-out: Protein Kinase Inhibitory Activity IC50. Here is the method:
(see U. Kikkawa, et al., Biochemical and Biophysical Research Communications, 135, 636 (1986) and R. M. Bell, et al. “Methods in Enzymology, Hormone Action,” Part J, P.M. Conn, Ed., Academic Press, Inc., New York, N.Y. 1986, page 353). Protein kinase C enzyme extract was prepared from the brain of male Wistar rats weighing 180 to 200 g and purified by the method of U. Kikkawa, et al., ibid. 636. The purified extract was stored at −80° C., and aliquots were used in the protein kinase C assay performed by a modification of the method of R. M. Bell, et al., ibid. al 354. To perform the assay, duplicate aliquots of duplicate samples are employed. Basal or unstimulated protein kinase C, phosphatidylserine/diacylglycerol stimulated protein kinase C, and test samples are run in each assay. […] The assay tubes were allowed to warm to 25° C. and an 8 μl mixture of adenosine 5′-triphosphate (100 μM) and ^32P-adenosine triphosphate (1 to 2×10^5 counts per minute) was added to each tube for a final volume of 80 μl per tube. After 2 min, the reaction (the incorporation of phosphorous into Type III histone) was terminated by spotting the assay mixture on phosphocellulose paper. The spots are cut out of the paper and the radioactivity (counts per min) of each spot was determined in a scintillation counter.

Another assay has as its system E. cloacae. Kind of assay: Aerobic antibacterial assay (agar dilution, Mueller-Hinton agar). The settings on record: E. cloacae 1321E; aerobic; 24 hours at 37° C.
Assay [3] concerns female Swiss Webster mice. The experiment in a line: Arachidonic acid-induced ear edema assay. It counts as in vivo. The settings on record: 1 mg/ear topical, arachidonic acid 4 mg/ear. As to the method: In the arachidonic acid-induced ear edema assay, the test compound was dissolved in 30/70 propylene glycol/ethanol and was applied to both ears of groups of 6 female Swiss Webster mice, which were housed together in a cage under standard conditions for 1 week prior to use with food and water ad lib, at a volume of 20 μl so that a total of 1.0 mg of test compound was delivered to each ear over the inner and outer surfaces. The same volume (20 μl) of vehicle was applied to each ear of a control group of mice. After 30 minutes, arachidonic acid was applied to the right ear of each mouse of each group in the amount of 4 mg/ear. Vehicle was applied to the left ear of each mouse of each group at a volume of 20 μl/ear. After an additional hour, the mice were sacrificed and a 4 mm plug was taken from each ear and weighed. The difference between the right and left ear plugs was determined for each animal. The antiinflammatory activity of the test compound is expressed as the mean percent change in the ear plug weight of the treated animals relative to the mean percent change in weights of control animals' ear. Antiinflammatory activity of representative compounds of the present invention as determined in this assay are presented below in Table 3.

Turning to `CCCCCCCCCCC#Cc1ccc(C(O)C(N)CO)s1` (stereo not drawn) [erythro-2-Amino-1-[5-(1-Dodecynyl)-2-thienyl]-1,3-propanediol], the “Antibacterial activity (MIC, mg/l)” value in the assay with Bact. distasonis was determined as 3.13 mg/L; with Spaeroph. freundii, 1.56 mg/L; in the assay on Peptostr. anaerobius it was 6.25 mg/L; with Bact. fragilis (Bact. fragilis 312), 6.25 mg/L; with Bact. fragilis (Bact. fragilis 960), 6.25 mg/L; in the assay on Bact. fragilis (Bact. fragilis 1313) it was 6.25 mg/L. Besides, the “Antibacterial activity (MIC, mg/l)” value in the assay on Bact. fragilis (Bact. fragilis 17390) was determined as 3.13 mg/L; with Bact. fragilis (Bact. fragilis 18125), 3.13 mg/L; with Bact. fragilis (Bact. fragilis 19016) it was 6.25 mg/L; in the assay with Bact. ovatus, 3.13 mg/L; in the assay with Clost. perfringens, 6.25 mg/L; with Fusobact. varium (Fusobact. varium 3085), 6.25 mg/L. Further, the “Antibacterial activity (MIC, mg/l)” value in the assay on Fusobact. varium (Fusobact. varium 5262) turned out to be 3.13 mg/L; in the assay with Propionibact. acnes (Propionibact. acnes 6919), 3.13 mg/L; in the assay with Propionibact. acnes (Propionibact. acnes 6922), 1.56 mg/L; in the assay on Clost. tetani it was 6.25 mg/L; in the assay with Bact. vulgatus, 3.13 mg/L; in the assay with Bact. thetaiotaom. (Bact. thetaiotaom. 123), 3.13 mg/L. Besides, the “Antibacterial activity (MIC, mg/l)” value in the assay with Bact. thetaiotaom. (Bact. thetaiotaom. 1428) was determined as 6.25 mg/L; in the assay on Bact. thetaiotaom. (Bact. thetaiotaom. 1445) it was 3.13 mg/L. Besides, the “Antifungal Activity MIC” value came out at 3.900 µg/mL with Microsporum Canis; 15.625 µg/mL in the assay on Trichophyton Vaginalis; 3.900 µg/mL in assay [1]; 3.900 µg/mL in the assay with Aspergillus Niger; 1.950 µg/mL in the assay with Candida Albicans; 15.625 µg/mL in the assay with Trichophyton Rubrum.
As to `CCCCCCCCCCC#Cc1cccc([C@@H](O)[C@H](CO)NC(C)=O)n1` [erythro-N-{1-[6-(1-Dodecynyl)-2-pyridinyl]-1,3-dihydroxy-2-propanyl}acetamide], the “Antibacterial activity (MIC, mg/l)” value in the assay on Bact. distasonis amounted to 6.25 mg/L; in the assay with Spaeroph. freundii, 3.13 mg/L; in the assay on Peptostr. anaerobius, 6.25 mg/L; in the assay with Bact. fragilis (Bact. fragilis 312), 3.13 mg/L; with Bact. fragilis (Bact. fragilis 960) it was 3.13 mg/L; in the assay on Bact. fragilis (Bact. fragilis 1313) it was 6.25 mg/L. Further, the “Antibacterial activity (MIC, mg/l)” value was 6.25 mg/L with Bact. fragilis (Bact. fragilis 17390); 3.13 mg/L with Bact. fragilis (Bact. fragilis 18125); 6.25 mg/L in the assay with Bact. fragilis (Bact. fragilis 19016); 3.13 mg/L in the assay with Bact. ovatus; 12.00 mg/L with Clost. perfringens; 6.25 mg/L in the assay with Fusobact. varium (Fusobact. varium 3085). For the same compound, the “Antibacterial activity (MIC, mg/l)” value was found to be 6.25 mg/L with Fusobact. varium (Fusobact. varium 5262); 6.25 mg/L with Propionibact. acnes (Propionibact. acnes 6919); 6.25 mg/L in the assay with Propionibact. acnes (Propionibact. acnes 6922); 12.50 mg/L in the assay with Clost. tetani; 3.13 mg/L in the assay on Bact. vulgatus; 3.13 mg/L in the assay on Bact. thetaiotaom. (Bact. thetaiotaom. 123). Besides, the “Antibacterial activity (MIC, mg/l)” value with Bact. thetaiotaom. (Bact. thetaiotaom. 1428) and in the assay on Bact. thetaiotaom. (Bact. thetaiotaom. 1445) was 6.25 mg/L throughout. Moreover, the “Antifungal Activity MIC” value with Microsporum Canis came to 0.970 µg/mL; with Trichophyton Vaginalis, 15.625 µg/mL; in [1], 7.810 µg/mL; in the assay on Aspergillus Niger, 125.000 µg/mL; in the assay with Candida Albicans it was 125.000 µg/mL; in the assay with Trichophyton Rubrum, 31.250 µg/mL. Besides, in assay [2], the “Antiinflammatory Activity Percent Decrease in Ear Plug Weight at 10 μg/ear” value was 59%.
As usually defined, the IC50 is the concentration that gives 50% inhibition. As for `CCCCCCCCCCc1cccc(C(O)C(N)CO)n1` (stereo not drawn) [erythro-2-amino-1-(6-decyl-2-pyridinyl)-1,3-dihydroxypropane], the “Antibacterial activity (MIC, mg/l)” value with Strept. pyogenes was 6.25 mg/L; with Klebsiella spp., 12.50 mg/L; with Fusobact. varium (Fusobact. varium 3085), 12.50 mg/L; in the assay with Propionibact. acnes (Propionibact. acnes 6922) it was 12.50 mg/L; with E. cloacae it was 12.50 mg/L. Also, the IC50 at Protein kinase C was found to be 48 µM. In addition, the “Antiinflammatory Activity Percent Decrease in Ear Plug Weight at 1 mg/ear” value in [3] worked out at 32%. Further, the “Antiinflammatory Activity Percent Decrease in Ear Plug Weight at 10 μg/ear” value in assay [2] worked out at 66%.
